{"source": "paper PMC9268100", "about": "“Chelation of Theranostic Copper Radioisotopes with S-Rich Macrocycles: From Radiolabelling of Copper-64 to In Vivo Investigation” (Molecules, 2022)", "key": {"[1]": {"assay": "Stability assay with cysteine (1000:1 Cys-to-ligand)", "format": "physicochemical", "conditions": "37 °C", "method": "(§1) The stability of the preformed [^64Cu]Cu^2+ complexes was assessed by adding a 1000:1 DOTA/cysteine-to-ligand molar ratio excess. The incubation temperature was set at 37 °C when cysteine was used to simulate the biological environment, whilst it was kept at RT when DOTA was employed as a challenging agent.\n(§2) The complex stability was evaluated over time by withdrawing an aliquot from the reaction mixtures. The latter was analyzed by UHPLC using the method described above."}, "[2]": {"assay": "Stability assay with DOTA (1000:1 DOTA-to-ligand)", "format": "physicochemical", "conditions": "RT", "method": "as §1, §2"}, "Human serum stability": {"assay": "Human serum stability", "format": "in vitro ADME", "conditions": "prepared at 25 MBq/nmol, 37 °C, over 24 h", "method": "Human serum stability assays were performed as follow: the preformed [^64Cu]Cu^2+ complexes (prepared at 25 MBq/nmol) were diluted 1:5 v/v in human serum. The samples were incubated at 37 °C to simulate the biological environment. At the defined time point, 50 μL of the plasma-containing mixture were added to 200 μL of ice-cold methanol (0.16 MBq/μL final concentration) and centrifuged for 3 min at 8000 rpm. Afterwards, 2 μL of supernatant were spotted on TLC plates developed using the previous protocols. Dissociation of [^64Cu]Cu^2+ from the complexes was also monitored at varying time points using the same procedure with the exception that no proteins were precipitated. In this case, 2 μL of human plasma containing the labelled complex was directly spotted on the TLC plate. […] Both procedures were validated by incubating free [^64Cu]Cu^2+ with human plasma."}, "[3]": {"assay": "Stability in phosphate-buffered saline", "format": "physicochemical", "conditions": "25 MBq/nmol, 24 h; for intact complex in PBS: no radioprotectant, ambient temperature", "method": "The stability of the preformed [^64Cu]Cu^2+ complexes in phosphate-buffered saline (PBS) was explored by diluting the labelling solution 1:1 v/v in PBS (pH 7.4). Both low and high molar activities (0.1 MBq/nmol and 25 MBq/nmol, respectively) were employed to evaluate the effect of radiolysis. Radioprotectants (ethanol 10% v/v or ascorbic acid 10% v/v) were added to PBS to quench the radiolysis phenomena. The [^64Cu]Cu^2+ complex stabilities were investigated at different time points after preparation using the TLC or UHPLC protocols reported previously."}, "[4]": {"assay": "Biodistribution in BALB/c nude mice", "format": "in vivo", "method": "(§3) All procedures involving animals were performed in accordance with ethical protocols approved by the Italian Ministry of Health (n. 44/2021-PR). Six-week-old female BALB/c nude mice (n = 9) were purchased from Charles River/Envigo and divided into three groups. Mice (n = 3/group) were administered with 7–14 MBq (depending on acquisition time after injection) of [^64Cu][Cu(DO2A2S)] solution by caudal intravenous injection. The exact amount of injected radioactivity was determined using a Capintec CRC-15PET dose calibrator. Micro PET/CT data were collected at 1, 4, and 24 h post injection using a Bruker Albira Si. Mice were anaesthetized with 1–2% isoflurane in a flow of oxygen (2 L/min 100% O2) and images were acquired over 20 min (10 min for PET and CT images acquisition, respectively). PET data were reconstructed using MLEM GPU (Graphics Processing Unit), while Filter Back Projection Algorithm was used for reconstructing CT images. Mice were euthanized by cervical dislocation immediately following the PET/CT scan and organs and tissues of interest were collected and weighed. Radioactivity associated with organs was measured using a γ-spectrometer based on a 1″×1″ inch cylindrical LBC (Lanthanum BromoChloride), LaBr2.85Cl0.15:Ce, inorganic scintillator manufactured by SCIONIX coupled to a HAMAMATSU R11102 Photomultiplier tube (PMT) which was previously characterized and validated against a Capintec CRC-15PET dose calibrator [48]. The results were corrected for decay to the time of injection. Radioactivity values were expressed as percentage of injected dose (mean ± SEM) per gram of tissue or organ (% ID/g). Concurrently, blood and urine aliquots (1 μL) were sampled for stability tests, which were carried out by radio-TLC scans (Cyclone, Perkin Elmer) by using silica gel 60 RP-18 F254S plates and 0.1 M sodium citrate as eluent."}, "[5]": {"assay": "In vivo stability in blood and urine samples (radio-TLC)", "design": "species or system BALB/c nude mice", "method": "as §3, with “PET data were reconstructed using MLEM GPU (Graphics Processing Unit), while Filter Back Projection Algorithm was used for reconstructing CT images. Mice were euthanized by cervical dislocation immediately following the PET/CT scan and organs and tissues of interest were collected and weighed.” left out, “The results were corrected for decay to the time of injection.” left out, “Concurrently, blood and urine aliquots (1 μL) were sampled for stability tests, which were carried out by radio-TLC scans (Cyclone, Perkin Elmer) by using silica gel 60 RP-18 F254S plates and 0.1 M sodium citrate as eluent.” left out"}, "[6]": {"conditions": "maximum reached over 1-24 h post-injection"}}, "data": [{"smiles": "CNC(=O)CN1CCN(CCSC)CCN(CCSC)CCN(CCSC)CC1.[64Cu+2]", "note": "[[^64Cu][Cu(DO3SAm)]^2+]", "values": [{"measurement": "% of intact complex, Cysteine, 0 h", "setting": "[1]", "result": 100, "unit": "%"}, {"measurement": "% of intact complex, Cysteine, 3 h", "setting": "[1]", "result": 83, "unit": "%"}, {"measurement": "% of intact complex, Cysteine, 24 h", "setting": "[1]", "result": 72, "unit": "%"}, {"measurement": "% of intact complex, DOTA, 0 h", "setting": "[2]", "result": 100, "unit": "%"}, {"measurement": "% of intact complex, DOTA, 7 h", "setting": "[2]", "result": 80, "unit": "%"}, {"measurement": "% of intact complex, DOTA, 24 h", "setting": "[2]", "result": 38, "unit": "%"}]}, {"smiles": "CSCCN1CCNCCN(CCSC)CCN(CCSC)CC1.[64Cu+2]", "note": "[[^64Cu][Cu(DO3S)]^2+]", "values": [{"measurement": "% of intact complex, Cysteine, 0 h", "setting": "[1]", "result": 100, "unit": "%"}, {"measurement": "% of intact complex, Cysteine, 3 h", "setting": "[1]", "result": 100, "unit": "%"}, {"measurement": "% of intact complex, Cysteine, 24 h", "setting": "[1]", "result": 100, "unit": "%"}, {"measurement": "% of intact complex, DOTA, 0 h", "setting": "[2]", "result": 100, "unit": "%"}, {"measurement": "% of intact complex, DOTA, 7 h", "setting": "[2]", "result": 100, "unit": "%"}, {"measurement": "% of intact complex, DOTA, 24 h", "setting": "[2]", "result": 100, "unit": "%"}]}, {"smiles": "O=C([O-])CN1CCN(CC(=O)[O-])CCN(CC(=O)[O-])CCN(CC(=O)[O-])CC1.[64Cu+2]", "note": "[[^64Cu][Cu(DOTA)]^2−, reference compound]", "values": [{"measurement": "intact complex in human serum", "setting": "Human serum stability", "result": "around 80%"}]}, {"smiles": "CSCCN1CCN(CC(=O)O)CCN(CCSC)CCN(CC(=O)O)CC1", "note": "[DO2A2S, 1,7-bis[2-(methylsulfanyl)ethyl]-4,10,diacetic acid-1,4,7,10-tetraazacyclododecane]", "values": [{"measurement": "intact complex in PBS with ascorbic acid", "setting": "[3]; ascorbic acid 10% v/v", "result": "~ 90%"}, {"measurement": "intact complex in PBS", "setting": "[3]", "result": "~ 25%"}]}, {"smiles": "CSCCN1CCN(CC(=O)[O-])CCN(CCSC)CCN(CC(=O)[O-])CC1.[64Cu+2]", "note": "[[^64Cu][Cu(DO2A2S)]]", "values": [{"measurement": "% of intact complex, Cysteine, 0 h", "setting": "[1]", "result": 100, "unit": "%"}, {"measurement": "% of intact complex, Cysteine, 3 h", "setting": "[1]", "result": 85, "unit": "%"}, {"measurement": "% of intact complex, Cysteine, 24 h", "setting": "[1]", "result": 74, "unit": "%"}, {"measurement": "% of intact complex, DOTA, 0 h", "setting": "[2]", "result": 91, "unit": "%"}, {"measurement": "% of intact complex, DOTA, 7 h", "setting": "[2]", "result": 90, "unit": "%"}, {"measurement": "% of intact complex, DOTA, 24 h", "setting": "[2]", "result": 87, "unit": "%"}, {"measurement": "blood levels", "setting": "[4]; 1 h post-injection, tail vein", "result": "< 2", "unit": "% ID/g"}, {"measurement": "kidneys uptake", "setting": "[4]; 1 h post-injection, tail vein", "result": 14.1, "unit": "% ID/g"}, {"measurement": "liver uptake", "setting": "[4]; 1 h post-injection, tail vein", "result": 14.0, "unit": "% ID/g"}, {"measurement": "lungs uptake", "setting": "[4]; 1 h post-injection, tail vein", "result": 8, "unit": "% ID/g"}, {"measurement": "pancreas uptake", "setting": "[4]; 1 h post-injection, tail vein", "result": 3, "unit": "% ID/g"}, {"measurement": "retention in bone", "setting": "[4]; 1 h post-injection, tail vein", "result": "< 2", "unit": "% ID/g"}, {"measurement": "retention in muscle", "setting": "[4]; 1 h post-injection, tail vein", "result": "< 1", "unit": "% ID/g"}, {"measurement": "spleen uptake", "setting": "[4]; 1 h post-injection, tail vein", "result": 4, "unit": "% ID/g"}, {"measurement": "dose found at 1 h remaining in kidneys at 24 h", "setting": "[4]; 24 h versus 1 h post-injection", "result": 73, "unit": "%"}, {"measurement": "dose found at 1 h remaining in liver at 24 h", "setting": "[4]; 24 h versus 1 h post-injection", "result": 82, "unit": "%"}, {"measurement": "dose found at 1 h remaining in lungs at 24 h", "setting": "[4]; 24 h versus 1 h post-injection", "result": 75, "unit": "%"}, {"measurement": "pancreas uptake, progressive accumulation over time", "setting": "[4]; [6]", "result": "≤ 5.5", "unit": "% ID/g"}, {"measurement": "spleen uptake, progressive accumulation over time", "setting": "[4]; [6]", "result": "up to 5.3 % ID/g"}, {"measurement": "free-[^64Cu]Cu^2+/+ in urine samples", "setting": "[5]; 4 h post-injection", "result": "~50", "unit": "%"}, {"measurement": "free copper-64 in blood samples", "setting": "[5]; within 24 h from the injection", "result": "less than 5%"}, {"measurement": "intact complex in human serum", "setting": "Human serum stability", "result": "> 99", "unit": "%"}]}, {"smiles": "CSCCN1CCN(CCSC)CCN(CCSC)CCN(CCSC)CC1", "note": "[DO4S, 1,4,7,10-Tetrakis[2-(methylsulfanyl)ethyl]-1,4,7,10-tetraazacyclododecane]", "values": [{"measurement": "intact complex in PBS", "setting": "[3]", "result": "~ 70%"}]}, {"smiles": "CSCCN1CCN(CCSC)CCN(CCSC)CCN(CCSC)CC1.[64Cu+2]", "note": "[[^64Cu][Cu(DO4S)]^2+]", "values": [{"measurement": "% of intact complex, Cysteine, 0 h", "setting": "[1]", "result": 100, "unit": "%"}, {"measurement": "% of intact complex, Cysteine, 3 h", "setting": "[1]", "result": 100, "unit": "%"}, {"measurement": "% of intact complex, Cysteine, 24 h", "setting": "[1]", "result": 83, "unit": "%"}, {"measurement": "% of intact complex, DOTA, 0 h", "setting": "[2]", "result": 100, "unit": "%"}, {"measurement": "% of intact complex, DOTA, 7 h", "setting": "[2]", "result": 92, "unit": "%"}, {"measurement": "% of intact complex, DOTA, 24 h", "setting": "[2]", "result": 88, "unit": "%"}, {"measurement": "complex stability in PBS with radioprotectants", "setting": "[3]; ethanol 10% v/v or ascorbic acid 10% v/v", "result": "preserve the complex over 24 h"}]}]}
